The test system of one assay is C2C12 cells. Put plainly: Mitochondrial membrane potential by TMRM fluorescence. The class given is cell-based, mouse. Conditions: co-treatment with oligomycin 1 μM, 20 min; C18:1-Phe 50 μM, FCCP 0.4 μM. As to the method: Mitochondrial membrane potential was measured using tetramethylrhodamine methyl ester (TMRM, Life Technologies) fluorescence. C2C12 cells were plated in 6-well plates and grown to 80-90% confluence. Cells were then washed once with PBS and switched into Seahorse respiration buffer with the indicated compounds at the indicated concentrations: TMRM (100 nM), oligomycin (1 μM), FCCP (0.4 μM), and C18:1-Phe (10 or 50 μM). After 20 min. incubation at 37° C., the media was aspirated, cells were washed once with PBS, and trypsinized. Trypsinized cells were directly resuspended in PBS (total volume 300 μl), stored on ice, and analyzed on a FACSCanto™ II (BD Biosciences) with 20,000 events per sample.

For assay [1], the system named is Diet induced obese (DIO) mice. Kind of assay: Indirect calorimetry (CLAMS) of high fat diet/DIO mice treated with N-acyl amino acids. The class given is in vivo, mouse. As to the method:
Animal experiments were performed according to procedures approved by the Beth Israel Deaconess Medical Center IACUC. Mice were maintained in 12 h light-dark cycles at 22° C. and fed a standard irradiated rodent chow diet. All experiments on wild-type mice were performed with male C57BL/6 mice purchased from Jackson Laboratories, except for the AAV experiments, which were performed with male C57BL/6 mice from Charles River. UCP1-KO (stock #017476) and 16-20 week DIO mice (stock #380050) were obtained from Jackson Laboratories. For AAV injection experiments, mice were gently warmed using a 250 W clear infrared heat lamp, immobilized, and injected via tail vein with 10^10 virus/mouse (diluted in saline) in a total volume of 100 μl/mouse. Where indicated, mice were placed on high-fat diet (60% fat, Research Diets). For cold exposure experiments, mice were group housed and placed at 4° C. for the indicated times. For the preparation of C18:1-Phe for in vivo injections, compounds were dissolved in 18:1:1 v/v/v saline:Kolliphor® EL (Sigma Aldrich):DMSO and sonicated until homogeneous. Mice were administered compounds at 5 μl/g body weight at the indicated doses. For all injection experiments, mice were mock injected with saline daily for 3 days prior to the start of the experiments. For glucose tolerance tests (GTTs), mice received their final dose of compound the day prior to the assay and were then fasted overnight. Glucose was administered at 1.5 g/kg.
Energy expenditure, O2 consumption, CO2 production, respiratory exchange ratio, total locomotor activity, and food intake measurements were made with a 16-cage Columbus Instruments Oxymax Comprehensive Lab Animal Monitoring System (CLAMS) at ambient room temperature (21-23° C.). Mice were acclimated for one day in metabolic cages prior to data collection. Whole-body composition was assessed with an EchoMRI™ 3-in-1 on conscious mice.

Setting [2] is: daily i.p.: C18:1-Leu 25, C18:1-Phe 30, C20:4-Gly 15 mg/kg/day.

Regarding `CCCCCCCC/C=C\CCCCCCCC(=O)N[C@@H](Cc1ccccc1)C(=O)O` [C18:1-Phe, Oleoyl-L-phenylalanine], the “decrease of TMRM fluorescence” value in the assay with C2C12 cells is recorded as about 45%. In addition, the movement result in assay [1] (16-week high fat diet mice, 10 mg/kg daily, days 5 and 6) is reported as “similar”. For the same compound, in assay [1] (setting [2]), the VO2 entry is on record as “significantly augmented” and the movement result is recorded as “no effects”.

For the origin of these results see patent US12194080B2, “Methods for identification, assessment, prevention, and treatment of metabolic disorders using PM20D1 and N-lipidated amino acids” (Dana-Farber Cancer Institute, Inc., priority 2015, dated 2025).
